Laboratory results published in patent US20190167629A1, “COMBINATION THERAPY METHODS FOR TREATING PROLIFERATIVE DISEASES” (Abraxis BioScience, LLC, priority 2010, published 2019).
Read-outs that look alike come from different tables or passages of the source.

Tests used:
SPARC [1] = experiment: SPARC expression in NSCLC xenografts in vivo; parameters: species or system SCID mice
Method: Western blot analysis was carried out using standard methods. Polyclonal antihuman SPARC antibody was purchased from R&D System (Minneapolis, Minn.). NSCLC cell lines A549, H460, and H157 were treated with 5 μM decitabine for 3 days in vitro and then harvested for RT-PCR and Western blot analysis. PD NSCLC xenografts and H460 xenografts treated with or without decitabine at 1.5 mg/kg/d. Xenografts were harvested for SPARC expression analysis. GAPDH were used as the endogenous control. Xenograft lysates were prepared and subjected to immunoblot analysis using 50 μg of cellular protein as described previously (Yu, C. et al. Blood 2003 102:3765-3774). The levels of β-actin (Sigma) were measured as control for equal loading. Immunoblots were developed with enhanced chemiluminescence (Amersham Bioscience, Golden Valley, Minn.).
(§1) To establish a maximally tolerated dose to be used in experiments involving pretreatment with decitabine, groups of mice implanted with H460 cell lines were tested at four dose levels of decitabine, i.e., 0.75, 1.5, 2, and 4 mg/kg, administered intraperitoneally as a single dose and monitored for viability (weight loss and death). Two mice from each group were killed 48 hours after completing decitabine treatment alone and tumor xenografts harvested to affirm SPARC-expression status. […]

SPARC [2] = experiment: SPARC promoter methylation (MSP) and SPARC expression (RT-PCR, Western blot) in NSCLC cell lines in vitro; assay type: cell-based, human; settings: 3 days in vitro
Method: Total RNA was extracted from the samples with Trizol reagent (Invitrogen; Carlsbad, Calif.), and first-strand complementary DNA was generated using SuperScript III First-Strand Synthesis System (Invitrogen). The forward polymerase chain reaction (PCR) amplification primer of SPARC was 5′-[…]-3′ (Ex8-S, SEQ ID NO:1), and the reverse primer was 5-[…]-3′ (Ex9-AS, SEQ ID NO:2). Semiquantitative PCR was carried out for 4 minutes at 95° C. for initial denaturation, followed by 33 cycles of 94° C. for 25 seconds, 56° C. for 25 seconds, and 68° C. for 40 seconds. Glyceraldehyde-3-phosphate dehydrogenase (GAPDH) was used as endogenous control. Quantitative real-time (RT) PCR was done with SYBR GreenER qPCR superMix for ABI PRISM (Invitrogen) using ABI 7300 RT PCR system (Invitrogen), and GAPDH was used as a housekeeping gene for purpose of normalization.
The objective of this study was to determine if demethylation of the promoter region of the SPARC gene results in reexpression of the SPARC gene in cancer cells. DNA methylation in gene promoter regions is a mechanism to silence gene expression. The loss of SPARC expression in a large proportion of NSCLC specimens may be due to the methylation in the promoter region of SPARC gene was investigated. Representative samples of NSCLC cell lines or PD xenografts were treated with decitabine (5 μM) in vitro for three days and promoter methylation was analyzed.
Genomic DNA was obtained from cell lines and primary tumors by using DNeasy Blood and Tissue Kit (Qiagen; Valencia, Calif.) according to the manufacturer's handbook. The DNA methylation pattern in the CpG island of SPARC was determined using the method of methylation-specific PCR (MSP) and with the EZ DNA Methylation Kit (Zymo research, Irvine, Calif.). Primers for the methylated reaction were Sparc-unmsp-F: 5′-[…]-3′ (sense, SEQ ID NO:3), Sparcunmsp-R: 5′-[…]-3′ (antisense, SEQ ID NO:4), sparc-msp-F: 5′-[…]-3′ (sense, SEQ ID NO:5), and sparc-msp-R: 5′-[…]-3′ (antisense, SEQ ID NO:6). PCR amplification was carried out with bisulfite-treated DNA as a template using specific primer sequences for the methylated and unmethylated status of the gene. Water blanks were included with each assay. PCR amplification was carried out for 12 minutes at 94° C. for initial denaturation, followed by 40 cycles of 94° C. for 30 seconds, 58° C. for 25 seconds, and 68° C. for 45 seconds. Results were confirmed by repeating the bisulfate treatment and MSP for all samples. PCR products were visualized on 1.5% agarose gels.
Western blot analysis was carried out using standard methods. Polyclonal antihuman SPARC antibody was purchased from R&D System (Minneapolis, Minn.). […] The levels of β-actin (Sigma) were measured as control for equal loading. […]

[3] = cited from earlier work
[4] = tested on: mice implanted with H460 cell lines; experiment: Tolerable dose of decitabine, viability (weight loss and death); assay type: in vivo, SCID mice
Method: To establish a maximally tolerated dose to be used in experiments involving pretreatment with decitabine, groups of mice implanted with H460 cell lines were tested at four dose levels of decitabine, i.e., 0.75, 1.5, 2, and 4 mg/kg, administered intraperitoneally as a single dose and monitored for viability (weight loss and death). Two mice from each group were killed 48 hours after completing decitabine treatment alone and tumor xenografts harvested to affirm SPARC-expression status. For combination drug treatment, Abraxane® was administered by tail vein injection at 30 mg/kg/d for 5 consecutive days. Taxol and decitabine were used at 13.4 mg/kg/d and 1.5 mg/kg/d, respectively. […] At the end of drug treatment, the mice were killed. Xenografts were harvested and assayed to determine SPARC status.
The study evaluates tumor SPARC expression upregulation on treatment with decitabine in vitro and in vivo. To establish a tolerable dose to be used in experiments in vivo, groups of mice implanted with H460 cell lines were tested at four dose levels of decitabine, i.e., 0.75, 1.5, 2, and 4 mg/kg, respectively. This is based on prior publication showing that decitabine administered twice daily intraperitoneally for 5 days was toxic at 10 mg/kg/dose, and 2 mg/kg dose was associated with mild toxicity (Guo, Z S et al Cancer Res 2006 22:1105-1113). […] Nevertheless, decitabine at 2 and 4 mg/kg was toxic with 6/8 (75%) mice dead between 8 and 12 days after only one decitabine dose (without Abraxane® treatment). Decitabine dose at 1.5 mg/kg was subsequently used in the combination experiments.

[5] = tested on: advanced or metastatic solid tumors, including lymphoma; experiment: Phase I/II study of azacitidine with nanoparticle albumin bound paclitaxel; assay type: in vivo, human; settings: azacitidine sc days 1-5, then paclitaxel 100 mg/m^2 days 8, 15, 22 of 28-day cycle
Method: Patients with evaluable advanced or metastatic solid tumors, including lymphoma, adequate organ function, PS 0-2, and unlimited prior cytotoxic chemotherapies, including taxanes, were eligible. Cohorts of 3-6 patients were enrolled and treated.
Escalating doses of azacitidine (75-100 mg/m^2) were administered to patients subcutaneously on days 1-5, followed by a fixed dose of paclitaxel ([…]) on days 8, 15, and 22 of a 28-day cycle, for a total of 6 cycles. Serum and/or tissue samples, where appropriate, were collected for correlative studies.
Patients were initially permitted to have an unlimited number of prior chemotherapies. […] All affected patients had 4 or more prior cytotoxic regimens. […] Cohort 3 was treated at the next dose level (azacitidine 100 mg/m^2). […] Therefore, the maximum tolerated dose (MTD) of azacitidine in this regimen is 75 mg/m^2. […] To date, 16 patients have enrolled in the phase I part. Two patients were removed before completing cycle 1 because of disease progression. One patient was removed after cycle 4 for noncompliance.

NSCLC_16372 xenograft = experiment: Tumor xenograft growth in vivo, SPARC-positive PD NSCLC xenograft; parameters: species or system SCID mice; settings: Abraxane 30 mg/kg, taxol 13.4 mg/kg (equitoxic)
Method: (§2) Experimental studies were carried out using 6- to 8-week-old CB.17 severe combined immunodeficiency (SCID)/SCID with an average body weight ˜25 g. H460 (5×10^6 cells) or PD NSCLC xenografts (mouse-to-mouse passage), which were cut into small fragments (2-3 mm in size), were implanted subcutaneously at the flank region. Tumor growth was monitored by periodic visual inspection at the site of implantation, and the dimensions of the xenografts were measured every 2 to 3 days. Tumor volume was calculated using the following formula: V=LD×(SD)^2/2, where V is the tumor volume, LD is the longest tumor diameter, and SD is the shortest tumor diameter.
as §1, with “death).” for “death). Two mice from each group were killed 48 hours after completing decitabine treatment alone and tumor xenografts harvested to affirm SPARC-expression status.”
(§3) To describe the observed variability in the in vivo data and test for differences between groups, a multivariate linear model was fit to each dependent variable (tumor volume). […] Difference was considered statistically significant when the calculated p value was less than 0.05.

NSCLC_15946 xenograft = experiment: Tumor xenograft growth in vivo, SPARC-intermediate PD NSCLC xenograft; parameters: species or system SCID mice; settings: Abraxane 30 mg/kg, taxol 13.4 mg/kg (equitoxic)
Method: as §2
as §1, with “death).” for “death). Two mice from each group were killed 48 hours after completing decitabine treatment alone and tumor xenografts harvested to affirm SPARC-expression status.”
as §3

NSCLC_16465 xenograft = experiment: Tumor xenograft growth in vivo, SPARC-negative PD NSCLC xenograft; parameters: species or system SCID mice; settings: taxol 13.4 mg/kg
Method: as §2
as §1, with “death).” for “death). Two mice from each group were killed 48 hours after completing decitabine treatment alone and tumor xenografts harvested to affirm SPARC-expression status.”
as §3

NSCLC_16591 xenograft = experiment: as above; parameters: species or system SCID mice; settings: Abraxane 30 mg/kg, taxol 13.4 mg/kg (equitoxic)
Method: as §2
as §1, with “death).” for “death). Two mice from each group were killed 48 hours after completing decitabine treatment alone and tumor xenografts harvested to affirm SPARC-expression status.”
as §3

[6] = decitabine at 2 and 4 mg/kg ip, without Abraxane treatment

## Nc1ncn([C@H]2C[C@H](O)[C@@H](CO)O2)c(=O)n1 [decitabine, 5-aza-2′-deoxycytidine]
SPARC [1]; NSCLC_16325, NSCLC_16384 and H460 xenografts, decitabine 1.5 mg/kg
  SPARC expression in xenografts: up-regulated
SPARC [1]; decitabine 0.75, 1.5, 2 and 4 mg/kg ip
  reexpression of SPARC in H460 xenografts: dose-dependent reexpression
SPARC [2]; A549, H460 and H157, decitabine 5 μM
  SPARC expression in NSCLC cell lines: up-regulated
SPARC [2]; H460 cells, decitabine 5 μM
  SPARC expression: up-regulated
  SPARC protein (Western blot): upregulation
  unmethylated promoter of SPARC (methylation-specific PCR): increase
[3]; 2 mg/kg dose twice daily intraperitoneally for 5 days
  toxicity: mild toxicity
[3]; 10 mg/kg/dose twice daily intraperitoneally for 5 days
  toxicity: toxic
[4]; decitabine at 2 and 4 mg/kg ip single dose
  toxicity: toxic
[4]; [6]
  mice dead between 8 and 12 days after only one decitabine dose: 75%
  mice dead between 8 and 12 days after only one decitabine dose (number/total): 6/8

## Nc1ncn([C@@H]2O[C@H](CO)[C@@H](O)[C@H]2O)c(=O)n1 [azacitidine, 5-azacytidine]
[5]
  maximum tolerated dose (MTD) of azacitidine in this regimen: 75 mg/m^2

## CC(=O)O[C@H]1C(=O)[C@@]2(C)[C@H]([C@H](OC(=O)c3ccccc3)[C@]3(O)C[C@H](OC(=O)[C@H](O)[C@@H](NC(=O)c4ccccc4)c4ccccc4)C(C)=C1C3(C)C)[C@]1(OC(C)=O)CO[C@@H]1C[C@@H]2O [taxol]
NSCLC_16372 xenograft
  xenograft growth compared with vehicle control: suppressed
NSCLC_15946 xenograft
  tumor growth compared with vehicle control: significantly inhibited
NSCLC_16465 xenograft
  tumor growth compared with vehicle control: no difference compared with vehicle control
NSCLC_16591 xenograft
  effect on tumor growth compared with vehicle control: Neither administration of taxol nor administration of Abraxane® showed any effect on tumor growth
